Results: ChEMBL document CHEMBL1149044, “Anthraquinones and a 10-Hydroxyanthrone from Phialophora alba” (1994)

System: Phellinus tremulae
Test: Antifungal activity against Phellinus tremulae at 1 mg/mL
Format: functional

Compound: COc1cc(C)cc2c1C(=O)c1c(O)cc(O)c(Cl)c1C2O (configuration not stated)
- inhibition at 1000 µg/mL: 50%

Compound: COc1cc(C)cc2c1C(=O)c1c(O)cc(O)cc1C2=O [1-O-METHYLEMODIN]
- inhibition at 1000 µg/mL: 50%
